Assays:
FLT3-D835Y = target: T1, FLT3-D835Y (Homo sapiens, UniProt P36888, D835Y); assay: FLT3-D835Y biochemical kinase assay (AlphaScreen)
T1 construct: purchased Invitrogen PV3967
T1 sequence (P36888 27-993 D835Y): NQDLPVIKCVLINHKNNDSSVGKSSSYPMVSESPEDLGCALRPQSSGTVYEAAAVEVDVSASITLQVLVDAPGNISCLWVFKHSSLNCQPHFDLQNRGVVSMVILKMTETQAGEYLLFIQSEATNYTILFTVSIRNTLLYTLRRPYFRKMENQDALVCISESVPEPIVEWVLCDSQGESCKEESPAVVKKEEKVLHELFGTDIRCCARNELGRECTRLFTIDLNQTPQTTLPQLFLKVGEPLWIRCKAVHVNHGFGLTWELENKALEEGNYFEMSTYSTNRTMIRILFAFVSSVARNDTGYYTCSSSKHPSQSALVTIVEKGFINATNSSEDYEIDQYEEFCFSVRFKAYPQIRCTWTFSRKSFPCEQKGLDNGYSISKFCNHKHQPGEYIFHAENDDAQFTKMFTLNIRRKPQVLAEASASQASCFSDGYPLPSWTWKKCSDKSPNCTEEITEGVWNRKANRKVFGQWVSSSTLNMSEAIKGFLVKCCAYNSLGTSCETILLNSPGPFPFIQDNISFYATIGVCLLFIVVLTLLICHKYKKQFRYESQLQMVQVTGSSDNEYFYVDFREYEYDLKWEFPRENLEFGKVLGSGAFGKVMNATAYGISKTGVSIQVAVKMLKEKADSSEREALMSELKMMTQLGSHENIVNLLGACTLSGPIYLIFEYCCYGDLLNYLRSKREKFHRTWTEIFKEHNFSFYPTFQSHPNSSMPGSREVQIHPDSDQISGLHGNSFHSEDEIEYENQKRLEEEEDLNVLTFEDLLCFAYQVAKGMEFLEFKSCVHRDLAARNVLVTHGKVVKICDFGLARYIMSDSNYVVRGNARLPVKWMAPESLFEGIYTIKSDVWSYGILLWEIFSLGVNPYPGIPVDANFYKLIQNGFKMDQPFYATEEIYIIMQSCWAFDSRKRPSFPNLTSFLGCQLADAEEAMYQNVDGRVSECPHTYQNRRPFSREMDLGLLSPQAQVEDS
Description: (§1) In order to determine the effect of compounds on FLT3 catalytic activity, kinase assays using recombinant enzymes and AlphaScreen® technology have been established. When the kinases are catalytically active, they phosphorylate a biotinylated peptide substrate on tyrosine residues. Using AlphaScreen® technology, the ability of the compounds to affect the catalytic activity of the kinases can be measured quantitatively. The peptide substrate is immobilized by the AlphaScreen® Streptavidin Donor beads and, upon phosphorylation by a tyrosine kinase, can bind to AlphaScreen® Anti-Phosphotyrosine (PY20) Acceptor beads. Upon excitation of these beads with laser light at 680 nm, singlet oxygen is produced. This singlet oxygen is rapidly quenched, unless the AlphaScreen® Anti-Phosphotyrosine (PY20) Acceptor beads are in close proximity, in which case a proximity signal can be measured at 580 nm. In the presence of catalytic activity, there is a very strong proximity signal. Selective kinase inhibitors affect a decrease in this proximity signal through a decrease in tyrosine phosphorylation of the peptide substrate.
(§2) Substrate • Poly (Glu4-Tyr) Peptide, biotin conjugate [Biotin-GG(EEEEY)10EE (SEQ ID NO: 4)] • UBI/Millipore #12-440 • Final concentration=30 nM
(§3) Adenosine Triphosphate (ATP) • Sigma #A-3377 • Final concentration for IC50 determination=10 μM (FLT3-D835Y) or 100 μM (FLT3 or FLT3-ITD) • Detection Reagent • AlphaScreen® Phosphotyrosine (PY20) Assay Kit • Perkin-Elmer #6760601M • Final concentration=10 μg/mL
(§4) Centrifuge 1 minute, shake to mix, and incubate as follows:
(§5) • Mix Streptavidin Donor beads at 6× final concentration in Stop/Detection buffer. • Add 5 μL Streptavidin Donor beads to the reaction plate. Centrifuge 1 minute, shake to mix, and incubate at room temperature for 20 minutes. • Mix Anti-Phosphotyrosine (PY20) Acceptor beads at 6× final concentration in Stop/Detection buffer. • Add 5 μL Anti-Phosphotyrosine (PY20) beads to the reaction plate. • Centrifuge 1 minute, shake to mix, and incubate at room temperature for 60 minutes. • Read plate on Wallac EnVision™ 2103 Multilabel Reader. In Vivo Model System Testing

FLT3-ITD = target: T2, FLT3-ITD (Homo sapiens, UniProt P36888); assay: FLT3-ITD biochemical kinase assay (AlphaScreen)
T2 construct: FLT3-ITD; Invitrogen #PV6190
T2 sequence (P36888 1-993): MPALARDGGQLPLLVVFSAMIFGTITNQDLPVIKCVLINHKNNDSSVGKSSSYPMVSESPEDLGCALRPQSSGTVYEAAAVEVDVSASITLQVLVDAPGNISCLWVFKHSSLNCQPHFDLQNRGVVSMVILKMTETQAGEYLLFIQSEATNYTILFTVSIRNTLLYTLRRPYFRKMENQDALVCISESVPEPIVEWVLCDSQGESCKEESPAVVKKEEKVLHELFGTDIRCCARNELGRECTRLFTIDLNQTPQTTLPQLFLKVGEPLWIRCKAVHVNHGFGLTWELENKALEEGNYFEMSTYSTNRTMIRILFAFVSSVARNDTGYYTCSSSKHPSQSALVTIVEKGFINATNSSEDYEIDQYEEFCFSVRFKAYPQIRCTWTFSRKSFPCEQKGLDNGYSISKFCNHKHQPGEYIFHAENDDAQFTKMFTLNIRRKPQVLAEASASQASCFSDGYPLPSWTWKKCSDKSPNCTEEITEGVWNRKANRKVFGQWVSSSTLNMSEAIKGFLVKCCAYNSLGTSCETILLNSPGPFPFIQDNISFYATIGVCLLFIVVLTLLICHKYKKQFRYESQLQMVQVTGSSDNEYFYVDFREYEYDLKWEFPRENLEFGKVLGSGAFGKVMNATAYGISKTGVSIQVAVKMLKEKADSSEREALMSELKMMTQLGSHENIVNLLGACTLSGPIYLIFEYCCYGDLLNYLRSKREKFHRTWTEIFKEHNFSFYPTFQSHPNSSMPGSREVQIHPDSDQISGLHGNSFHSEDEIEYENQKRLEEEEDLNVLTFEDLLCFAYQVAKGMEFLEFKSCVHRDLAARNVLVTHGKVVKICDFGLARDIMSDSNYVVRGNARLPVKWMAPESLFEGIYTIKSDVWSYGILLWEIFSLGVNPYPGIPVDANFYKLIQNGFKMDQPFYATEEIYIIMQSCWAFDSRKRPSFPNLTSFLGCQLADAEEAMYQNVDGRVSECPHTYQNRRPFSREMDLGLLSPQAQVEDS
Description: as §1, §2, §3, §4, §5

Row | SMILES | IC50 (FLT3-D835Y) | IC50 (FLT3-ITD)
1 | Cn1cnc2ccc(-c3c[nH]c4ncc(-c5cccc(N6CCCS6(=O)=O)c5)nc34)cc21 [P-153, 2-[3-[7-(3-methylbenzimidazol-5-yl)-5H-pyrrolo[2,3-b]pyrazin-2-yl]phenyl]-1,2-thiazolidine 1,1-dioxide] | 0.0001 to 1 µM | 0.0001 to 1 µM
2 | Cn1cnc2ccc(-c3c[nH]c4ncc(-c5ccc(F)c(C#N)c5)cc34)cc21 [P-141, 2-fluoro-5-[3-(3-methylbenzimidazol-5-yl)-1H-pyrrolo[2,3-b]pyridin-5-yl]benzonitrile] | 0.0001 to 1 µM | 0.0001 to 1 µM
3 | CC(C)n1cnc2ccc(-c3c[nH]c4ncc(-c5cccc(NS(C)(=O)=O)c5)nc34)cc21 [P-080, N-[3-[7-(3-isopropylbenzimidazol-5-yl)-5H-pyrrolo[2,3-b]pyrazin-2-yl]phenyl]methanesulfonamide] | 0.0001 to 1 µM | 0.0001 to 1 µM
4 | CCS(=O)(=O)Nc1cccc(-c2cnc3[nH]cc(-c4ccc5ncn(C)c5c4)c3n2)c1 [P-154, N-[3-[7-(3-methylbenzimidazol-5-yl)-5H-pyrrolo[2,3-b]pyrazin-2-yl]phenyl]ethanesulfonamide] | 0.0001 to 1 µM | 0.0001 to 1 µM
5 | N#Cc1cccc(-c2cnc3[nH]cc(-c4ccc5ncn(C6CCCNC6)c5c4)c3c2)c1 (centres unmarked) [P-200, 3-[3-[3-(3-piperidyl)benzimidazol-5-yl]-1H-pyrrolo[2,3-b]pyridin-5-yl]benzonitrile] | 0.0001 to 1 µM | 0.0001 to 1 µM
6 | Cn1cnc2ccc(-c3c[nH]c4ncc(-c5cccc(CC(=O)O)c5)cc34)cc21 [P-185, 2-[3-[3-(3-methylbenzimidazol-5-yl)-1H-pyrrolo[2,3-b]pyridin-5-yl]phenyl]acetic acid] | 0.0001 to 1 µM | 0.0001 to 1 µM
7 | CC(C)(C)n1cnc2ccc(-c3c[nH]c4ncc(-c5cnc(NC6CC6)nc5)nc34)cc21 [P-362, 5-[7-(3-tert-butylbenzimidazol-5-yl)-5H-pyrrolo[2,3-b]pyrazin-2-yl]-N-cyclopropyl-pyrimidin-2-amine] | 0.0001 to 1 µM | 0.0001 to 1 µM
8 | Cn1cnc2ccc(-c3c[nH]c4ncc(-c5cccc(S(=O)(=O)N6CCCC6)c5)nc34)cc21 [P-156, 7-(3-methylbenzimidazol-5-yl)-2-(3-pyrrolidin-1-ylsulfonylphenyl)-5H-pyrrolo[2,3-b]pyrazine] | 0.0001 to 1 µM | 0.0001 to 1 µM
9 | COc1ccc(-c2cnc3[nH]cc(-c4ccc5ncn(C(C)(C)C)c5c4)c3c2)cc1NS(C)(=O)=O [P-370, N-[5-[3-(3-tert-butylbenzimidazol-5-yl)-1H-pyrrolo[2,3-b]pyridin-5-yl]-2-methoxy-phenyl]methanesulfonamide] |  | 0.0001 to 1 µM
10 | CC(C)(C)n1cnc2ccc(-c3c[nH]c4ncc(-c5cnc(N)nc5)cc34)cc21 [P-397, 5-[3-(3-tert-butylbenzimidazol-5-yl)-1H-pyrrolo[2,3-b]pyridin-5-yl]pyrimidin-2-amine] |  | 0.0001 to 1 µM
11 | CC(C)(C)n1cnc2ccc(-c3c[nH]c4ncc(-c5cnc(N6CCC6)nc5)cc34)cc21 [P-398, 5-[2-(azetidin-1-yl)pyrimidin-5-yl]-3-(3-tert-butylbenzimidazol-5-yl)-1H-pyrrolo[2,3-b]pyridine] |  | 0.0001 to 1 µM
12 | CC(C)(C)n1cnc2ccc(-c3c[nH]c4ncc(-c5cccc(OCC6CC6)c5)cc34)cc21 [P-373, 1-tert-butyl-6-[5-[3-(cyclopropylmethoxy)phenyl]-1H-pyrrolo[2,3-b]pyridin-3-yl]benzimidazole] |  | 0.0001 to 1 µM
13 | Cc1cc(-c2cnc3[nH]cc(-c4ccc5ncn(C(C)(C)C)c5c4)c3c2)cnc1F [P-394, 1-tert-butyl-6-[5-(6-fluoro-5-methyl-3-pyridyl)-1H-pyrrolo[2,3-b]pyridin-3-yl]benzimidazole] |  | 0.0001 to 1 µM
14 | CN(C)c1ncc(-c2cnc3[nH]cc(-c4ccc5ncn(C(C)(C)C)c5c4)c3c2)cn1 [P-401, 5-[3-(3-tert-butylbenzimidazol-5-yl)-1H-pyrrolo[2,3-b]pyridin-5-yl]-N,N-dimethyl-pyrimidin-2-amine] |  | 0.0001 to 1 µM
15 | Cc1ncc(-c2cnc3[nH]cc(-c4ccc5ncn(C(C)(C)C)c5c4)c3c2)cn1 [P-395, 1-tert-butyl-6-[5-(2-methylpyrimidin-5-yl)-1H-pyrrolo[2,3-b]pyridin-3-yl]benzimidazole] |  | 0.0001 to 1 µM
16 | CC(C)(C)n1cnc2ccc(-c3c[nH]c4ncc(-c5cncc(NS(C)(=O)=O)c5)cc34)cc21 [P-371, N-[5-[3-(3-tert-butylbenzimidazol-5-yl)-1H-pyrrolo[2,3-b]pyridin-5-yl]-3-pyridyl]methanesulfonamide] |  | 0.0001 to 1 µM
17 | CC(C)(C)n1cnc2ccc(-c3c[nH]c4ncc(-c5cccc(OCC(=O)O)c5)cc34)cc21 [P-374, 2-[3-[3-(3-tert-butylbenzimidazol-5-yl)-1H-pyrrolo[2,3-b]pyridin-5-yl]phenoxy]acetic acid] |  | 0.0001 to 1 µM
18 | CC(C)(C)n1cnc2ccc(-c3c[nH]c4ncc(-c5cccc(OCC#N)c5)cc34)cc21 [P-367, 2-[3-[3-(3-tert-butylbenzimidazol-5-yl)-1H-pyrrolo[2,3-b]pyridin-5-yl]phenoxy]acetonitrile] |  | 0.0001 to 1 µM
19 | Cc1cc(-c2cnc3[nH]cc(-c4ccc5ncn(C(C)(C)C)c5c4)c3c2)cnc1C#N [P-393, 5-[3-(3-tert-butylbenzimidazol-5-yl)-1H-pyrrolo[2,3-b]pyridin-5-yl]-3-methyl-pyridine-2-carbonitrile] |  | 0.0001 to 1 µM
20 | CC(C)(C)n1cnc2ccc(-c3c[nH]c4ncc(-c5cncnc5)cc34)cc21 [P-399, 1-tert-butyl-6-(5-pyrimidin-5-yl-1H-pyrrolo[2,3-b]pyridin-3-yl)benzimidazole] |  | 0.0001 to 1 µM
21 | Cc1ncc(-c2cnc3[nH]cc(-c4ccc5ncn(C(C)(C)C)c5c4)c3c2)cc1F [P-392, 1-tert-butyl-6-[5-(5-fluoro-6-methyl-3-pyridyl)-1H-pyrrolo[2,3-b]pyridin-3-yl]benzimidazole] |  | 0.0001 to 1 µM

Source: US10160755B2 (Plexxikon Inc., priority 2015, dated 2018)
